# Measured values published in patent publication US20080161289A1, “Fused Thiazole Derivatives Having Affinity for the Histamine H3 Receptor” (Glaxo Group Limited, priority 2005, published 2008).
# Molecular target: T1, histamine H3 receptors (Homo sapiens, UniProt Q9Y5N1)
# T1 construct: expressed in transfected cells; host or cells: CHO K1 cells carrying pSwitch, transfected with pGeneH3, induced with mifepristone; clone 3H3; membrane preparation
# Assay: Histamine H3 functional antagonist assay ([35S]-GTPγS SPA on membranes from H3 cells)
# Format: biochemical
# Settings: hydrochloride salts tested; H3 functional antagonist assay using membrane prepared from cultured H3 cells; averages of a number of experiments; read-out: functional pKi (fpKi) (converted)
# Source text: A membrane preparation containing histamine H3 receptors may be prepared in accordance with the following procedures:
# (i) Generation of Histamine H3 Cell Line
# DNA encoding the human histamine H3 gene (Huvar, A. et al. (1999) Mol. Pharmacol. 55(6), 1101-1107) was cloned into a holding vector, pCDNA3.1 TOPO (InVitrogen) and its cDNA was isolated from this vector by restriction digestion of plasmid DNA with the enzymes BamHI and Not-1 and ligated into the inducible expression vector pGene (InVitrogen) digested with the same enzymes. The GeneSwitch™ system (a system where in transgene expression is switched off in the absence of an inducer and switched on in the presence of an inducer) was performed as described in U.S. Pat. Nos. 5,364,791; 5,874,534; and 5,935,934. Ligated DNA was transformed into competent DH5α E. coli host bacterial cells and plated onto Luria Broth (LB) agar containing Zeocin™ (an antibiotic which allows the selection of cells expressing the sh ble gene which is present on pGene and pSwitch) at 50 μg ml^−1. Colonies containing the re-ligated plasmid were identified by restriction analysis. DNA for transfection into mammalian cells was prepared from 250 ml cultures of the host bacterium containing the pGeneH3 plasmid and isolated using a DNA preparation kit (Qiagen Midi-Prep) as per manufacturers guidelines (Qiagen).
# CHO K1 cells previously transfected with the pSwitch regulatory plasmid (InVitrogen) were seeded at 2×10e6 cells per T75 flask in Complete Medium, containing Hams F12 (GIBCOBRL, Life Technologies) medium supplemented with 10% v/v dialysed foetal bovine serum, L-glutamine, and hygromycin (100 μg ml^−1), 24 hours prior to use. Plasmid DNA was transfected into the cells using Lipofectamine plus according to the manufacturers guidelines (InVitrogen). 48 hours post transfection cells were placed into complete medium supplemented with 500 μg ml^−1 Zeocin™.
# 10-14 days post selection 10 nM Mifepristone (InVitrogen), was added to the culture medium to induce the expression of the receptor. 18 hours post induction cells were detached from the flask using ethylenediamine tetra-acetic acid (EDTA; 1:5000; InVitrogen), following several washes with phosphate buffered saline pH 7.4 and resuspended in Sorting Medium containing Minimum Essential Medium (MEM), without phenol red, and supplemented with Earles salts and 3% Foetal Clone II (Hyclone). Approximately 1×10e7 cells were examined for receptor expression by staining with a rabbit polyclonal antibody, 4a, raised against the N-terminal domain of the histamine H3 receptor, incubated on ice for 60 minutes, followed by two washes in sorting medium. Receptor bound antibody was detected by incubation of the cells for 60 minutes on ice with a goat anti rabbit antibody, conjugated with Alexa 488 fluorescence marker (Molecular Probes). Following two further washes with Sorting Medium, cells were filtered through a 50 μm Filcon™ (BD Biosciences) and then analysed on a FACS Vantage SE Flow Cytometer fitted with an Automatic Cell Deposition Unit. Control cells were non-induced cells treated in a similar manner. Positively stained cells were sorted as single cells into 96-well plates, containing Complete Medium containing 500 μg ml^−1 Zeocin™ and allowed to expand before reanalysis for receptor expression via antibody and ligand binding studies. One clone, 3H3, was selected for membrane preparation.
# (ii) Membrane Preparation from Cultured Cells
# All steps of the protocol are carried out at 4° C. and with pre-cooled reagents. The cell pellet is resuspended in 10 volumes of homogenisation buffer (50 mM N-2-hydroxyethylpiperazine-N′-2-ethanesulfonic acid (HEPES), 1 mM ethylenediamine tetra-acetic acid (EDTA), pH 7.4 with KOH, supplemented with 10e-6M leupeptin (acetyl-leucyl-leucyl-arginal; Sigma L2884), 25 μg/ml bacitracin (Sigma B0125), 1 mM phenylmethylsulfonyl fluoride (PMSF) and 2×10e-6M pepstain A (Sigma)). […]
# T1 sequence (Q9Y5N1 whole entry): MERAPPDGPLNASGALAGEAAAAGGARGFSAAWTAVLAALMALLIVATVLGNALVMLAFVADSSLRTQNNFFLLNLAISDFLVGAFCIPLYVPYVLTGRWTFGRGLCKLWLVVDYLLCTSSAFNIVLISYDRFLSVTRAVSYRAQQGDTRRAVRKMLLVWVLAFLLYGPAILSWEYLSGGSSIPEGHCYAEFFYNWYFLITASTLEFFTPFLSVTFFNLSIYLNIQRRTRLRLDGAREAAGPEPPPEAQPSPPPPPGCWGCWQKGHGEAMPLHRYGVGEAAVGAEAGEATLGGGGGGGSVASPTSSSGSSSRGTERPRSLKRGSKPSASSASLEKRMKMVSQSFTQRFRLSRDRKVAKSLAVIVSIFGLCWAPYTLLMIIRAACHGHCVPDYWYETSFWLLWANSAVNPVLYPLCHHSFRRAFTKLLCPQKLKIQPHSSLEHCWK
row,Compound,Ki
1,"CC(C)N1CCc2nc(-c3ccc(N4CCN(C)C4=O)cc3)sc2CC1 [Example E29, 1-Methyl-3-{4-[6-(1-methylethyl)-5,6,7,8-tetrahydro-4H-[1,3]thiazolo[4,5-d]azepin-2-yl]phenyl}-2-imidazolidinone]",< 1.26 nM
2,"CN1CCN(c2ccc(-c3nc4c(s3)CCN(C3CCCCC3)CC4)cc2)C1=O [Example E30, 1-[4-(6-Cyclohexyl-5,6,7,8-tetrahydro-4H-[1,3]thiazolo[4,5-d]azepin-2-yl)phenyl]-3-methyl-2-imidazolidinone]",< 1.26 nM
3,"CN1CCN(c2ccc(-c3nc4c(s3)CCN(CC3CC3)CC4)cc2)C1=O [Example E31, 1-{4-[6-(Cyclopropylmethyl)-5,6,7,8-tetrahydro-4H-[1,3]thiazolo[4,5-d]azepin-2-yl]phenyl}-3-methyl-2-imidazolidinone]",< 1.26 nM
4,"CC(C)CN1CCc2nc(-c3ccc(N4CCN(C)C4=O)cc3)sc2CC1 [Example E32, 1-Methyl-3-{4-[6-(2-methylpropyl)-5,6,7,8-tetrahydro-4H-[1,3]thiazolo[4,5-d]azepin-2-yl]phenyl}-2-imidazolidinone]",< 0.316 nM
5,"c1ccc(-c2nc3c(s2)CCN(C2CCC2)CC3)cc1 [Example E42, 6-Cyclobutyl-2-phenyl-5,6,7,8-tetrahydro-4H-[1,3]thiazolo[4,5-d]azepine]",< 31.6 nM
6,"O=C1OCCN1c1ccc(-c2nc3c(s2)CCN(C2CCC2)CC3)cc1 [Example E44, 3-[4-(6-Cyclobutyl-5,6,7,8-tetrahydro-4H-[1,3]thiazolo[4,5-d]azepin-2-yl)phenyl]-1,3-oxazolidin-2-one]",< 0.316 nM
7,"N#Cc1ccc(-c2nc3c(s2)CCN(C2CCC2)CC3)cc1 [Example E48, 4-(6-Cyclobutyl-5,6,7,8-tetrahydro-4H-[1,3]thiazolo[4,5-d]azepin-2-yl)benzonitrile]",< 1.26 nM
8,"N#Cc1ccc(-c2nc3c(s2)CCN(C2CCC2)CC3)cn1 [Example E49, 5-(6-Cyclobutyl-5,6,7,8-tetrahydro-4H-[1,3]thiazolo[4,5-d]azepin-2-yl)-2-pyridinecarbonitrile]",< 31.6 nM
9,"CNC(=O)c1ccc(-c2nc3c(s2)CCN(C2CCC2)CC3)cn1 [Example E51, 5-(6-Cyclobutyl-5,6,7,8-tetrahydro-4H-[1,3]thiazolo[4,5-d]azepin-2-yl)-N-methyl-2-pyridinecarboxamide]",< 1.26 nM
10,"O=C1CCCN1c1ccc(-c2nc3c(s2)CCN(C2CCC2)CC3)cn1 [Example E52, 1-[5-(6-Cyclobutyl-5,6,7,8-tetrahydro-4H-[1,3]thiazolo[4,5-d]azepin-2-yl)-2-pyridinyl]-2-pyrrolidinone]",< 0.316 nM
11,"CN1CCN(c2ccc(-c3nc4c(s3)CCN(C3CCC3)CC4)cn2)C1=O [Example E53, 1-[5-(6-Cyclobutyl-5,6,7,8-tetrahydro-4H-[1,3]thiazolo[4,5-d]azepin-2-yl)-2-pyridinyl]-3-methyl-2-imidazolidinone]",< 0.316 nM
12,"c1cc(N2CCCCC2)ncc1-c1nc2c(s1)CCN(C1CCC1)CC2 [Example E55, 6-Cyclobutyl-2-[6-(1-piperidinyl)-3-pyridinyl]-5,6,7,8-tetrahydro-4H-[1,3]thiazolo[4,5-d]azepine]",< 1.26 nM
13,"c1ncc(-c2nc3c(s2)CCN(C2CCC2)CC3)cn1 [Example E58, 6-Cyclobutyl-2-(5-pyrimidinyl)-5,6,7,8-tetrahydro-4H-[1,3]thiazolo[4,5-d]azepine]",< 31.6 nM
14,"c1nc(N2CCCCC2)ncc1-c1nc2c(s1)CCN(C1CCC1)CC2 [Example E61, 6-Cyclobutyl-2-[2-(1-piperidinyl)-5-pyrimidinyl]-5,6,7,8-tetrahydro-4H-[1,3]thiazolo[4,5-d]azepine]",< 31.6 nM
15,"N#Cc1ccc(-c2nc3c(s2)CCN(C2CCCC2)CC3)nc1 [Example E74, 6-(6-Cyclopentyl-5,6,7,8-tetrahydro-4H-[1,3]thiazolo[4,5-d]azepin-2-yl)-3-pyridinecarbonitrile]",< 31.6 nM
16,"CNC(=O)c1ccc(-c2nc3c(s2)CCN(C2CCC2)CC3)nc1 [Example E76, 6-(6-Cyclobutyl-5,6,7,8-tetrahydro-4H-[1,3]thiazolo[4,5-d]azepin-2-yl)-N-methyl-3-pyridinecarboxamide]",< 31.6 nM

# The remaining lines, values ahead:
row,Ki,Compound
1,< 1.26 nM,"N#Cc1cncc(N2CCC(c3nc4c(s3)CCN(C3CCC3)CC4)C2)c1 (stereo not shown) [Example E39, 5-[3-(6-Cyclobutyl-5,6,7,8-tetrahydro-4H-[1,3]thiazolo[4,5-d]azepin-2-yl)-1-pyrrolidinyl]-3-pyridinecarbonitrile]"
2,< 1.26 nM,"CNC(=O)c1ccc(-c2nc3c(s2)CCN(C2CCC2)CC3)cc1 [Example E43, 4-(6-Cyclobutyl-5,6,7,8-tetrahydro-4H-[1,3]thiazolo[4,5-d]azepin-2-yl)-N-methylbenzamide]"
3,< 1.26 nM,"N#Cc1cncc(N2CCC(c3nc4c(s3)CCN(C3CCC3)CC4)CC2)c1 [Example E66, 5-[4-(6-Cyclobutyl-5,6,7,8-tetrahydro-4H-[1,3]thiazolo[4,5-d]azepin-2-yl)-1-piperidinyl]-3-pyridinecarbonitrile]"
4,< 0.316 nM,"N#Cc1ccc(N2CCC(c3nc4c(s3)CCN(C3CCC3)CC4)CC2)cc1 [Example E67, 4-[4-(6-Cyclobutyl-5,6,7,8-tetrahydro-4H-[1,3]thiazolo[4,5-d]azepin-2-yl)-1-piperidinyl]benzonitrile]"
5,< 1.26 nM,"Cc1ccccc1NC(=O)N1CCC(c2nc3c(s2)CCN(C2CCC2)CC3)CC1 [Example E70, 4-(6-Cyclobutyl-5,6,7,8-tetrahydro-4H-[1,3]thiazolo[4,5-d]azepin-2-yl)-N-(2-methylphenyl)-1-piperidinecarboxamide]"
6,< 1.26 nM,"CNC(=O)c1ccc(N2CCC(c3nc4c(s3)CCN(C3CCC3)CC4)CC2)cn1 [Example E77, 5-[4-(6-Cyclobutyl-5,6,7,8-tetrahydro-4H-[1,3]thiazolo[4,5-d]azepin-2-yl)-1-piperidinyl]-N-methyl-2-pyridinecarboxamide]"
7,< 0.316 nM,"Cc1ccccc1C(=O)N1CCC(c2nc3c(s2)CCN(C2CCC2)CC3)CC1 [Example E78, 6-Cyclobutyl-2-{1-[(2-methylphenyl)carbonyl]-4-piperidinyl}-5,6,7,8-tetrahydro-4H-[1,3]thiazolo[4,5-d]azepine]"
8,< 1.26 nM,"Cc1cc(C(=O)N2CCC(c3nc4c(s3)CCN(C3CCC3)CC4)CC2)[nH]n1 [Example E79, 6-Cyclobutyl-2-{1-[(3-methyl-1H-pyrazol-5-yl)carbonyl]-4-piperidinyl}-5,6,7,8-tetrahydro-4H-[1,3]thiazolo[4,5-d]azepine]"
9,< 1.26 nM,"O=C(c1ccc(Cl)cc1)N1CCC(c2nc3c(s2)CCN(C2CCC2)CC3)CC1 [Example E80, 2-{1-[(4-Chlorophenyl)carbonyl]-4-piperidinyl}-6-cyclobutyl-5,6,7,8-tetrahydro-4H-[1,3]thiazolo[4,5-d]azepine]"
10,< 0.316 nM,"O=C(c1cccc(Cl)c1)N1CCC(c2nc3c(s2)CCN(C2CCC2)CC3)CC1 [Example E81, 2-{1-[(3-Chlorophenyl)carbonyl]-4-piperidinyl}-6-cyclobutyl-5,6,7,8-tetrahydro-4H-[1,3]thiazolo[4,5-d]azepine]"
11,< 1.26 nM,"Cc1cccc(C(=O)N2CCC(c3nc4c(s3)CCN(C3CCC3)CC4)CC2)c1 [Example E82, 6-Cyclobutyl-2-{1-[(3-methylphenyl)carbonyl]-4-piperidinyl}-5,6,7,8-tetrahydro-4H-[1,3]thiazolo[4,5-d]azepine]"
12,< 1.26 nM,"Cc1cccnc1C(=O)N1CCC(c2nc3c(s2)CCN(C2CCC2)CC3)CC1 [Example E83, 6-Cyclobutyl-2-{1-[(3-methyl-2-pyridinyl)carbonyl]-4-piperidinyl}-5,6,7,8-tetrahydro-4H-[1,3]thiazolo[4,5-d]azepine]"
